Assay: xn = mol fraction of the nth substance listed
Settings: 101 kPa, Liquid

CCO [ethanol] + O
Settings	mass density [kg/m3]	viscosity [mPa·s]
298.15 K, x2 = 0.0998	797.6	–
298.15 K, x2 = 0.2009	–	1.407
298.15 K, x2 = 0.2018	810.78	–
298.15 K, x2 = 0.3001	–	1.558
298.15 K, x2 = 0.3085	826.73	–
298.15 K, x2 = 0.4016	–	1.761
298.15 K, x2 = 0.4145	843.26	–
298.15 K, x2 = 0.5001	858.65	1.946
298.15 K, x2 = 0.6	–	2.166
298.15 K, x2 = 0.6205	885.56	–
298.15 K, x2 = 0.7	–	2.342
298.15 K, x2 = 0.7005	904.69	–
298.15 K, x2 = 0.7992	933.6	–
298.15 K, x2 = 0.8	–	2.39
298.15 K, x2 = 0.9	–	1.923
298.15 K, x2 = 0.9051	965.51	–
318.15 K, x2 = 0.1	780.53	0.848
318.15 K, x2 = 0.2	–	0.951
318.15 K, x2 = 0.201	793.6	–
318.15 K, x2 = 0.3001	807.71	1.003
318.15 K, x2 = 0.4004	823.81	–
318.15 K, x2 = 0.4036	–	1.09
318.15 K, x2 = 0.5002	–	1.168
318.15 K, x2 = 0.5003	840.31	–
318.15 K, x2 = 0.5998	863.31	–
318.15 K, x2 = 0.6	–	1.243
318.15 K, x2 = 0.7	–	1.298
318.15 K, x2 = 0.7001	888.76	–
318.15 K, x2 = 0.8001	919.19	–
318.15 K, x2 = 0.8007	–	1.293
318.15 K, x2 = 0.9	952.47	0.977

CCOC(C)=O [ethyl acetate] + CCO
Settings	mass density [kg/m3]	viscosity [mPa·s]
298.15 K, x1 = 0.1	801.5	0.848
298.15 K, x1 = 0.1992	816.25	–
298.15 K, x1 = 0.2	–	0.707
298.15 K, x1 = 0.3	–	0.614
298.15 K, x1 = 0.3006	829.52	–
298.15 K, x1 = 0.3949	840.61	–
298.15 K, x1 = 0.4	–	0.56
298.15 K, x1 = 0.5	–	0.513
298.15 K, x1 = 0.5001	852.04	–
298.15 K, x1 = 0.5987	861.64	–
298.15 K, x1 = 0.6	–	0.488
298.15 K, x1 = 0.7	870.79	0.465
298.15 K, x1 = 0.7981	879.06	–
298.15 K, x1 = 0.8	–	0.448
298.15 K, x1 = 0.9	886.96	0.434
298.15 K, x1 = 0.9501	890.81	–
318.15 K, x1 = 0.1	783.09	0.624
318.15 K, x1 = 0.2	–	0.535
318.15 K, x1 = 0.2001	796.45	–
318.15 K, x1 = 0.3	808.31	–
318.15 K, x1 = 0.3007	–	0.471
318.15 K, x1 = 0.4	–	0.432
318.15 K, x1 = 0.4001	819.37	–
318.15 K, x1 = 0.5	829.53	0.412
318.15 K, x1 = 0.6	838.75	–
318.15 K, x1 = 0.6003	–	0.387
318.15 K, x1 = 0.7	847.18	–
318.15 K, x1 = 0.7006	–	0.374
318.15 K, x1 = 0.8	–	0.364
318.15 K, x1 = 0.8001	855.16	–
318.15 K, x1 = 0.8999	862.6	–
318.15 K, x1 = 0.9	–	0.36

CCOC(C)=O [ethyl acetate] + O
Settings	mass density [kg/m3]	viscosity [mPa·s]
298.15 K, x2 = 0.0258	–	0.436
298.15 K, x2 = 0.0269	895.32	–
298.15 K, x2 = 0.045	–	0.444
298.15 K, x2 = 0.0469	896.13	–
298.15 K, x2 = 0.0722	897.09	–
298.15 K, x2 = 0.0748	–	0.456
298.15 K, x2 = 0.0853	–	0.46
298.15 K, x2 = 0.0892	897.9	–
298.15 K, x2 = 0.1045	898.48	–
298.15 K, x2 = 0.1053	–	0.468
298.15 K, x2 = 0.1249	899.5	–
298.15 K, x2 = 0.1258	–	0.476
318.15 K, x2 = 0.0249	870.81	–
318.15 K, x2 = 0.025	–	0.362
318.15 K, x2 = 0.0496	–	0.368
318.15 K, x2 = 0.0524	871.8	–
318.15 K, x2 = 0.075	–	0.373
318.15 K, x2 = 0.0766	872.73	–
318.15 K, x2 = 0.0999	–	0.379
318.15 K, x2 = 0.1003	873.94	–
318.15 K, x2 = 0.1254	–	0.385
318.15 K, x2 = 0.1255	875.08	–

Source: the NIST ThermoML archive (doi:10.1021/je600565m)
